This passage reports growth results from ChEMBL document CHEMBL1137710, “Synthesis and in vitro antitumor activity of new quinoxaline derivatives” (2009).

Holding throughout (type): functional
The test system of one experiment is NCI-H460. Description: Anticancer activity against human NCI-H460 cells assessed as cell growth at 100 uM after 48 hrs by sulforhodamine B assay. To be noted: NCI-H460, 48 h, read-out: Activity.
The next experiment deals with MCF7. Kind of experiment: Anticancer activity against human MCF7 cells assessed as cell growth at 100 uM after 48 hrs by sulforhodamine B assay. The following applies: MCF7, 48 h, read-out: Activity. In general terms: Sulforhodamine B stains cellular protein and so reports cell mass.
In another experiment the test system is SF-268. Description: Anticancer activity against human SF268 cells assessed as cell growth at 100 uM after 48 hrs by sulforhodamine B assay. The following applies: SF-268, 48 h, read-out: Activity.

As to `COc1ccc(Oc2nc3cc(N)cc(N)c3nc2-c2ccccc2)cc1OC`, the results for the growth at 100 µM in the experiment on NCI-H460, in the experiment on MCF7 and in the experiment on SF-268 were 118%, 117% and 131%, respectively.

In the case of `COc1ccc(Sc2nc3cc(N)cc(N)c3nc2-c2ccccc2)cc1OC`, the growth at 100 µM in the experiment with NCI-H460 is 119%; in the experiment with MCF7 it was 121%; in the experiment on SF-268, 136%.
